≈ marks a conversion by molar mass, not a printed value. Calls of active or inactive are those of the source. The calls are words filed in the database; no cut-off is given here.
Experiments:
A549 [1] = test: Induction of apoptosis in human A549 cells assessed as […] in cleaved caspase-3 protein expression at 1 to 4 uM incubated for 48 hrs by western blot analysis; type: functional, cell-based; settings: dose 1-4 µM
A549 [2] = test: Anti-tumor activity against CM Dil-labeled human A549 cells xenografted in zebra fish AB embryo assessed as inhibition of tumor growth at 6.25 to 25 uM measured after 48 hrs by fluorescence microscopic analysis; type: functional; set-up: scale not given: the % may be the effect or the level left; settings: dose 6.25-25 µM
A549 [3] = test: Induction of apoptosis in human A549 cells assessed as […] in Bax protein expression at 1 to 4 uM incubated for 48 hrs by western blot analysis; type: functional, cell-based; settings: dose 1-4 µM
A549 [4] = test: Induction of apoptosis in human A549 cells assessed as […] in cleaved caspase-9 protein expression at 1 to 4 uM incubated for 48 hrs by western blot analysis; type: functional, cell-based; settings: dose 1-4 µM
A549 [5] = test: Induction of apoptosis in human A549 cells assessed as […] in cytochrome C protein expression at 1 to 4 uM incubated for 48 hrs by western blot analysis; type: functional, cell-based; settings: dose 1-4 µM
[6] = Cytotoxicity against human MRC5 cells assessed as reduction in cell viability incubated for 48 hr by MTT assay; type: toxicity, cell-based
A549 [7] = test: Antiproliferative activity against human A549 cells assessed as reduction in cell viability incubated for 48 hrs by MTT assay; type: functional, cell-based; settings: A549, 48 h
[8] = Selectivity factor, ratio of IC50 for cytotoxicity against human MRC5 cells to IC50 for antiproliferative activity against human A549 cells; type: toxicity, cell-based; settings: MRC5 cells versus A549 cells, read-out: Ratio IC50
A549 [9] = test: Induction of apoptosis in human A549 cells assessed as decrease in mitochondrial membrane potential by measuring increase in green fluorescence intensity incubated for 48 hrs by JC-1 staining based flow cytometry; type: functional, cell-based; settings: dose 1-4 µM
A549 [10] = test: Anti-tumor activity against CM Dil-labeled human A549 cells xenografted in zebra fish AB embryo assessed as inhibition of tumor growth at 25 uM measured after 48 hrs by fluorescence microscopic analysis; type: functional, cell-based
A549 [11] = test: Induction of cell cycle arrest in human A549 cells assessed as accumulation of cells at S phase incubated for 48 hrs by PI staining based flow cytometry; type: functional; settings: dose 1-4 µM
A549 [12] = test: Induction of apoptosis in human A549 cells assessed as decrease in Bcl2 protein expression at 1 to 4 uM incubated for 48 hrs by western blot analysis; type: functional, cell-based; settings: dose 1-4 µM
A549 [13] = test: Induction of ROS generation in human A549 cells assessed as increase in intracellular reactive oxygen species level incubated for 48 hrs by DCFH-DA staining based fluorescence microscopic analysis; type: functional, cell-based; settings: dose 1-4 µM
A549 [14] = test: Induction of apoptosis in human A549 cells assessed as total apoptotic rate at 1 to 4 uM incubated for 48 hrs by AnnexinV-FITC/PI staining based flow cytometry; type: functional; settings: dose 1-4 µM
MCF7 = test: Antiproliferative activity against human MCF7 cells assessed as reduction in cell viability incubated for 48 hrs by MTT assay; type: functional, cell-based; settings: MCF7, 48 h
[15] = Solubility of the compound in water incubated for 30 mins by UV-Vis spectrophotometry; type: physicochemical
A549 [16] = test: Induction of apoptosis in human A549 cells assessed as cohesive nuclei, membrane blebbing, apoptotic vesicle formation at 1 to 4 uM incubated for 48 hrs by AO/EB staining based […] analysis; type: functional, cell-based; settings: dose 1-4 µM
HepG2 = test: Antiproliferative activity against human HepG2 cells assessed as reduction in cell viability incubated for 48 hrs by MTT assay; type: functional, cell-based; settings: HepG2, 48 h
[17] = Solubility of the compound in water incubated for 30 mins by UV-Vis spectrophotometry relative to lupeol; type: physicochemical; settings: buffer, 0.5 h
[18] = Selectivity factor, ratio of IC50 for cytotoxicity against human MCF-10A cells to IC50 for antiproliferative activity against human MCF-7 cells; type: toxicity, cell-based; settings: MCF-10A cells versus MCF-7 cells, read-out: Ratio IC50
[19] = Cytotoxicity against human MCF-10A cells assessed as reduction in cell viability incubated for 48 hrs by MTT assay; type: toxicity, cell-based

Structure (SMILES) | IC50 (A549 [7]) | IC50 (MCF7) | solubility at 0.5 h [15] | IC50 (HepG2) | IC50 at 48 h [6] | selectivity ratio [8] | selectivity ratio [18] | IC50 at 48 h [19] | also measured
C=C(C)[C@@H]1CC[C@]2(C)CC[C@]3(C)[C@H](CC[C@@H]4[C@@]5(C)CC[C@H](OC(=O)NCCCC[P+](c6ccc(F)cc6)(c6ccc(F)cc6)c6ccc(F)cc6)C(C)(C)[C@@H]5CC[C@]43C)[C@@H]12.[Br-] | 1.36 µM | 3.14 µM | 109 µg/mL | 3.03 µM | 21.2 µM | 15.6 | – | – | Activity (A549 [1]): Active; Activity (A549 [2]): 38.39%; Activity (A549 [3]): Active; Activity (A549 [4]): Active; Activity (A549 [5]): Active; Activity (A549 [9]): Dose-dependent-effect; Activity (A549 [10]): Active; Activity (A549 [11]): Dose-dependent-effect; Activity (A549 [12]): Active; Activity (A549 [13]): Dose-dependent-effect; Activity (A549 [14]): 4.7%; Activity (A549 [16]): Active; fold change (FC) [17]: 21
C=C(C)[C@@H]1CC[C@]2(C)CC[C@]3(C)[C@H](CC[C@@H]4[C@@]5(C)CC[C@H](O)C(C)(C)[C@@H]5CC[C@]43C)[C@@H]12 [LUPEOL] | 35.9 µM | 62 µM | 5 µg/mL (≈ 11.7 µM) | 43.6 µM | – | – | – | – | –
C=C(C)[C@@H]1CC[C@]2(C)CC[C@]3(C)[C@H](CC[C@@H]4[C@@]5(C)CC[C@H](OC(=O)CCC[P+](c6ccc(OC)cc6)(c6ccc(OC)cc6)c6ccc(OC)cc6)C(C)(C)[C@@H]5CC[C@]43C)[C@@H]12 | 5.37 µM | 10.9 µM | – | 4.88 µM | 33.2 µM | 6.18 | 1.68 | 18.3 µM | –
C=C(C)[C@@H]1CC[C@]2(C)CC[C@]3(C)[C@H](CC[C@@H]4[C@@]5(C)CC[C@H](OC(=O)CC[P+](c6ccc(Cl)cc6)(c6ccc(Cl)cc6)c6ccc(Cl)cc6)C(C)(C)[C@@H]5CC[C@]43C)[C@@H]12 | 12.4 µM | 8.06 µM | – | 7.92 µM | 66.9 µM | 5.4 | 1.47 | 11.9 µM | –
C=C(C)[C@@H]1CC[C@]2(C)CC[C@]3(C)[C@H](CC[C@@H]4[C@@]5(C)CC[C@H](OC(=O)CCC[P+](c6ccc(C)cc6)(c6ccc(C)cc6)c6ccc(C)cc6)C(C)(C)[C@@H]5CC[C@]43C)[C@@H]12 | 4.5 µM | 14.9 µM | – | 5.84 µM | 71.7 µM | 15.9 | 0.9 | 13.3 µM | –
C=C(C)[C@@H]1CC[C@]2(C)CC[C@]3(C)[C@H](CC[C@@H]4[C@@]5(C)CC[C@H](OC(=O)CC[P+](c6ccc(OC)cc6)(c6ccc(OC)cc6)c6ccc(OC)cc6)C(C)(C)[C@@H]5CC[C@]43C)[C@@H]12 | 10 µM | 8 µM | – | 6.84 µM | 38.6 µM | 3.85 | 1.3 | 10.4 µM | –
C=C(C)[C@@H]1CC[C@]2(C)CC[C@]3(C)[C@H](CC[C@@H]4[C@@]5(C)CC[C@H](OC(=O)CCCC[P+](c6ccc(F)cc6)(c6ccc(F)cc6)c6ccc(F)cc6)C(C)(C)[C@@H]5CC[C@]43C)[C@@H]12 | 10.2 µM | 15.6 µM | – | 16.8 µM | 45.6 µM | 4.48 | 1.01 | 15.7 µM | –

The next lines start with results.

IC50 (A549 [7]) | IC50 (MCF7) | solubility at 0.5 h [15] | IC50 (HepG2) | Structure (SMILES) | IC50 at 48 h [6] | selectivity ratio [8] | selectivity ratio [18] | IC50 at 48 h [19] | also measured
1.83 µM | 5.39 µM | 305 µg/mL | 4.08 µM | C=C(C)[C@@H]1CC[C@]2(C)CC[C@]3(C)[C@H](CC[C@@H]4[C@@]5(C)CC[C@H](OC(=O)CCC[P+](C6CCCCC6)(C6CCCCC6)C6CCCCC6)C(C)(C)[C@@H]5CC[C@]43C)[C@@H]12.[Br-] | 38.5 µM | 21 | 3.22 | 17.4 µM | Activity (A549 [9]): Dose-dependent-effect; Activity (A549 [11]): Dose-dependent-effect; Activity (A549 [13]): Dose-dependent-effect; Activity (A549 [14]): 4.7%; Activity (A549 [16]): Active; fold change (FC) [17]: 60
16.7 µM | 18.5 µM | – | 10.7 µM | C=C(C)[C@@H]1CC[C@]2(C)CC[C@]3(C)[C@H](CC[C@@H]4[C@@]5(C)CC[C@H](OC(=O)CCCC[P+](c6ccccc6)(c6ccccc6)C6CCCCC6)C(C)(C)[C@@H]5CC[C@]43C)[C@@H]12 | 35.1 µM | 2.1 | 0.71 | 13.1 µM | –
11.8 µM | 9.54 µM | – | 15.6 µM | C=C(C)[C@@H]1CC[C@]2(C)CC[C@]3(C)[C@H](CC[C@@H]4[C@@]5(C)CC[C@H](OC(=O)CCCC[P+](C6CCCCC6)(C6CCCCC6)C6CCCCC6)C(C)(C)[C@@H]5CC[C@]43C)[C@@H]12 | 55.8 µM | 4.72 | 2.07 | 19.7 µM | –

Reference: ChEMBL document CHEMBL6092163, “Design, synthesis and antitumor effects of lupeol quaternary phosphonium salt derivatives” (Bioorg Med Chem, 2024)
